Source: patent US11091806B2, “Genetic markers associated with response to CRTH2 receptor antagonists” (Merck Sharp & Dohme Corp., priority 2015, dated 2021)

Tests used:
[1] = system: asthmatic subjects with persistent symptoms; assay: 17-week randomized, double-blind, placebo-controlled, crossover study of FEV1 in asthmatic subjects receiving montelukast, with pharmacogenetic subgroup analysis; assay type: in vivo, human; conditions: for Estimated mean treatment difference in FEV1 at Week 4 using the new method of analysis, LSMean: Compound A + montelukast vs placebo + montelukast, xdiff=0
From the text: FIG. 2 is graphical depiction of the study design. The study was a 17-week randomized, double-blind, placebo-controlled, crossover study with in-house blinding to evaluate the effect of {(7R)-4-fluoro-7-[5-(4-fluorobenzyl)-1H-[1,2,3]triazol-1-yl]-6,7,8,9-tetrahydropyrido[1,2-a]indol-10-yl}-acetic acid (hereinafter “Compound A”) on FEV1 when dosed for 4 weeks in asthmatic subjects with persistent symptoms while receiving montelukast (ML). Overall, 104 patients completed the study. Period I was a pre-study period. Subjects receiving long acting beta-agonists (LABAs) with inhaled corticosteroid (ICS), either separately or as part of a fixed-dose combination, were asked to discontinue the LABA component while still receiving ICS. Period II was a 2- to 4-week run-in period during which subjects receive open-label montelukast (ML) and single-blind placebo (PBO). Subjects receiving ICS or other controllers were required to taper off these medications while receiving montelukast; Period III was a 4-week, double-blind, randomized treatment period during which subjects received either Compound A 150 mg or matching-image placebo while continuing to receive montelukast 10 mg QD; Period IV was a 4-week wash out period during which subjects receive placebo in a single-blind fashion while continuing to receive montelukast 10 mg QD; Period V was a 4-week double-blind period during which subjects were crossed over to the opposite treatment not received during Period III.
The primary efficacy endpoint of the study was forced expiratory volume in 1 second (FEV1) after 4 weeks of dosing, and the study had 85% power to detect a true overall mean treatment difference of 110 mL.
A common analysis for crossover designs with longitudinal measurements in each period uses a linear mixed effects “cell means” model with the clinical measure (here, FEV1) as the dependent variable, and sequence (S=M→P, P→M), treatment (T=M,P), visit (V=0, 2, 4 weeks), and all possible interactions involving S, T, and V as independent variables; M=Compound A+montelukast, P=placebo+montelukast. In addition, to minimize assumptions, a covariance matrix without imposition of any structure (such as compound symmetry) is used to account for the intra-patient correlations among FEV1 responses over time and across the two treatments within each sequence.
This common analysis can be misleading if both of the following conditions are encountered in either crossover sequence: (i) the observed mean difference in baseline means for the two treatments is “far” from zero, and (ii) baseline and post-baseline responses are very strongly correlated (correlation 0.9 or higher). […] Consequently, we analyzed the FEV1 data using an extension of the method of analysis described in Mehrotra D V, Pharmaceutical Statistics 13, 376-387 (2014). This second analytical method is specifically designed for crossover analyses with baseline measurements. To do so, we added “xdiff” (baseline difference between treatments M and P) and interactions between xdiff and all the other fixed effect terms involving S, T, and V to the aforementioned common analysis crossover model; the mean treatment difference at week 4 was estimated at xdiff=0 via the SAS code below.
In the SAS code above, patients with a missing xdiff value are automatically removed from the analysis. To generate results in which all 103 patients are retained in the analysis, missing period 2 baseline FEV1 values (resulting in missing xdiff values, which was the case for ˜20% of the patients due to dropout) were imputed separately in each sequence via a simple linear regression model with the period 2 baseline as the dependent variable and the corresponding period 1 baseline as the independent variable. As noted earlier, the observed correlation between period 1 and period 2 FEV1 baselines was 0.9 in both sequences, providing reassurance that the imputed values for missing period 2 baselines had good reliability. […]

allergic rhinitis = conditions: in vivo; cited from earlier work
[2] = system: patient population afflicted with eosinophilic severe asthma; conditions: patients with eosinophilic severe asthma; Phase IIa; cited from earlier work

SMILES: O=C(O)Cc1c2n(c3c(F)cccc13)C[C@H](n1nncc1Cc1ccc(F)cc1)CC2 [Compound A, {(7R)-4-fluoro-7-[5-(4-fluorobenzyl)-1H-[1,2,3]triazol-1-yl]-6,7,8,9-tetrahydropyrido[1,2-a]indol-10-yl}-acetic acid]
- FEV1: Estimated Mean Treatment Difference at Week 4 by Genotype Subgroup for rs12748961, LSMean ([1]; C = 0 (N = 74), no copies of the C allele): 59 mL
- FEV1: Estimated Mean Treatment Difference at Week 4 by Genotype Subgroup for rs12748961, LSMean ([1]; C ≥1 (N = 29), one or two copies of the C allele): 268 mL
- Estimated mean treatment difference in FEV1 at Week 4 using the new method of analysis, LSMean ([1]; missing period 2 FEV1 baselines imputed: No (N = 85)): 120 mL
- Estimated mean treatment difference in FEV1 at Week 4 using the new method of analysis, LSMean ([1]; missing period 2 FEV1 baselines imputed: Yes (N = 103)): 122 mL
- Effectiveness in improving FEV1 levels relative to placebo ([1]; after four weeks of treatment in patients who continue to take montelukast as background therapy): notably more effective
- Estimated benefit (FEV1) in patients without the C allele of rs12748961 ([1]; remaining 70% of the patients (C = 0)): relatively small

SMILES: O=C(O)CCn1c2c(c3ccccc31)C[C@H](NS(=O)(=O)c1ccc(F)cc1)CC2 [Ramatroban, 3-((3R)-3-{[(4-fluorophenyl)sulfonyl]amino}-1,2,3,4-tetrahydro-9H-carbazol-9-yl)propanoic acid]
- Efficacy in allergic rhinitis (allergic rhinitis): some degree of efficacy

SMILES: Cc1c(CC(=O)O)c2cccnc2n1Cc1ccc(S(C)(=O)=O)cc1C(F)(F)F [fevipiprant, 2-(2-methyl-1-(4-(methylsulfonyl)-2-(trifluoromethyl)benzyl)-1H-pyrrolo[2,3-b]pyridin-3-yl)acetic acid]
- Sputum eosinophils [2]: reduction of sputum eosinophils
